Source: patent US9145392B2, “Imidazole amines as modulators of kinase activity” (Merck Patent GmbH, priority 2011, dated 2015)

Experiments:
P70S6K (T412E mutant) = P70S6K (T412E mutant) (Homo sapiens (Human), UniProt P23443, T412E); test: P70S6K enzyme assay; type: biochemical; conditions: read-out: IC50 p70S6K
Method: P70S6K inhibitor compounds are diluted and plated in 96 well plates. […] The reaction is incubated for 90 min at 25° C., before the addition of 10 mM EDTA to stop the reaction. The proportion of substrate and product (phosphorylated) peptide is analysed on a Caliper Life Sciences Lab Chip 3000, using a pressure of −1.4 psi, and upstream and downstream voltages of −3000 and −700 respectively. Product peaks are resolved before substrate peaks on the resulting chromatograms.

His-AKT (Full Length) = His-AKT (Full Length) (Homo sapiens (Human), UniProt P31749); test: AKT enzyme assay; type: biochemical; conditions: read-out: IC50 AKT
Chain of His-AKT (Full Length) (P31749 whole entry): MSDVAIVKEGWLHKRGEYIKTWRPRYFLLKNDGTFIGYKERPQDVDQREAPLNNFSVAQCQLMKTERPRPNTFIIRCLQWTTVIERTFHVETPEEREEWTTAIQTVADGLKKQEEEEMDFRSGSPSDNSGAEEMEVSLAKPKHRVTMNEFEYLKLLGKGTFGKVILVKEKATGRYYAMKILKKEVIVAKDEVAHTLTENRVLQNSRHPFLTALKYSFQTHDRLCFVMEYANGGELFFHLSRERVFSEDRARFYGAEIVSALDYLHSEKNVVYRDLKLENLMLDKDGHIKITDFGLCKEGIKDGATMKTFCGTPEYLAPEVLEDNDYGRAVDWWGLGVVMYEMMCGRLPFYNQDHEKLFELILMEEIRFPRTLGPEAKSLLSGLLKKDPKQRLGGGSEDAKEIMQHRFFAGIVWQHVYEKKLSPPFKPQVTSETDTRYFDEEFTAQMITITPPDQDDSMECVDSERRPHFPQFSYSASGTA
Method: A TTP Mosquito liquid handling instrument is used to place 125n1 of the appropriate concentration of inhibitor in 100% DMSO (for a dose response curve calculation) into each well of a 384-well plate.
The reaction is incubated for 90 min at 25 C, and then stopped by the addition of 70 μl of Stop buffer (100 mM HEPES pH 7.5, 0.015% Brij-35, 10 mM EDTA (Sigma, E7889)).
The plate is read on a Caliper LC 3000 in an Off-Chip mobility shift assay format, using the following parameters for a 12-sipper chip: screening pressure −2.3 psi, upstream voltage −500, and downstream voltage −3000. These conditions cause unphosphorylated substrate and phosphorylated product peptide to resolve as separate peaks allowing direct measurement of percentage of conversion of substrate to product. The percent conversion can be plotted against concentration of inhibitor to produce a sigmoidal dose response curve, from which an IC50 can be calculated.

Chain of P70S6K (T412E mutant) (P23443 whole entry T412E): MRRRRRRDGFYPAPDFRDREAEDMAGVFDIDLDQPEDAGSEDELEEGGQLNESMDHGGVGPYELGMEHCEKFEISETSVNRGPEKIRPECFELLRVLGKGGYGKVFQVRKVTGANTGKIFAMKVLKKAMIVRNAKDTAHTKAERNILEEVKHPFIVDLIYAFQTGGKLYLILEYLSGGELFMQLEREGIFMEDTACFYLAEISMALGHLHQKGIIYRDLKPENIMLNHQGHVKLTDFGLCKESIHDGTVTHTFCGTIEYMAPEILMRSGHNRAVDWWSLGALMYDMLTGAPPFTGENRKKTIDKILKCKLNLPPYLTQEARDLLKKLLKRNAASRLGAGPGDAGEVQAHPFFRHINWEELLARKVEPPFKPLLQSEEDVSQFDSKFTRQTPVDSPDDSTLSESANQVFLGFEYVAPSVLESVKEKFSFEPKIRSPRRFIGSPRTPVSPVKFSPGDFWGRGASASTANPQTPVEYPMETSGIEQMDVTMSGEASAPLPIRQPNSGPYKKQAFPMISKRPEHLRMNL

Compound | IC50 (P70S6K (T412E mutant)) | IC50 (His-AKT (Full Length))
Nc1ncnc(N2CCC(c3nc(-c4ccc(F)c(C(F)(F)F)c4)cn3CCN3CCCC3)CC2)c1Br [Compound 56] | 3.5 nM | 14 nM
C=Cc1c(N)ncnc1N1CCC(c2nc(-c3ccc(F)c(C(F)(F)F)c3)cn2CCN2CCCC2)CC1 [Compound 60] | 2.5 nM | 6.8 nM
Nc1ncnc(N2CCC(c3nc(-c4ccc(F)c(C(F)(F)F)c4)cn3CCN3CCCCC3)CC2)c1Br [Compound 61, 5-Bromo-6-{4-[4-(4-fluoro-3-trifluoromethyl-phenyl)-1-(2-piperidin-1-yl-ethyl)-1H-imidazol-2-yl]-piperidin-1-yl}-pyrimidin-4-ylamine] | 2.8 nM | 9 nM
Nc1ncnc(N2CCC(c3nc(-c4ccc(F)c(C(F)(F)F)c4)cn3CCN3CCCCC3)CC2)c1-c1ccc(F)cc1 [Compound 62] | 18 nM | 350 nM
Nc1ncnc(N2CCC(c3nc(-c4ccc(F)c(C(F)(F)F)c4)cn3CCN3CCCCC3)CC2)c1-c1ccccc1F [Compound 63] | 5.1 nM | 130 nM
Nc1ncnc(N2CCC(c3nc(-c4ccc(F)c(C(F)(F)F)c4)cn3CCN3CCCCC3)CC2)c1-c1cccc(F)c1 [Compound 64] | 8.7 nM | 85 nM
CN(C)CCn1cc(-c2ccc(F)c(C(F)(F)F)c2)nc1C1CCN(c2ncnc(N)c2-c2ccncc2)CC1 [Compound 69, 6-{4-[1-(2-Dimethylamino-ethyl)-4-(4-fluoro-3-trifluoromethyl-phenyl)-1H-imidazol-2-yl]-piperidin-1-yl}-5-pyridin-4-yl-pyrimidin-4-ylamine] | 3 nM | 43 nM
C=Cc1c(N)ncnc1N1CCC(c2nc(-c3ccc(F)c(C(F)(F)F)c3)cn2CCN(C)C)CC1 [Compound 73, 6-{4-[1-(2-Dimethylamino-ethyl)-4-(4-fluoro-3-trifluoromethyl-phenyl)-1H-imidazol-2-yl]-piperidin-1-yl}-5-vinyl-pyrimidin-4-ylamine] | 2.7 nM | 7.9 nM
N#Cc1c(N)ncnc1N1CCC(c2nc(-c3ccc(F)c(C(F)(F)F)c3)cn2CCN2CCC2)CC1 [Compound 74, 4-Amino-6-{4-[1-(2-azetidin-1-yl-ethyl)-4-(4-fluoro-3-trifluoromethyl-phenyl)-1H-imidazol-2-yl]-piperidin-1-yl}-pyrimidine-5-carbonitrile] | 1.2 nM | 2.6 nM
N#Cc1c(N)ncnc1N1CCC(c2nc(-c3ccc(F)c(Cl)c3)cn2CCN2CCC2)CC1 [Compound 75, 4-Amino-6-{4-[1-(2-azetidin-1-yl-ethyl)-4-(3-chloro-4-fluoro-phenyl)-1H-imidazol-2-yl]-piperidin-1-yl}-pyrimidine-5-carbonitrile] | 1 nM | 1.9 nM
N#Cc1c(N)ncnc1N1CCC(c2nc(C3CCCCC3)cn2CCN2CCC2)CC1 [Compound 77, 4-Amino-6-{4-[1-(2-azetidin-1-yl-ethyl)-4-cyclohexyl-1H-imidazol-2-yl]-piperidin-1-yl}-pyrimidine-5-carbonitrile] | 6 nM | 76 nM
NC(=O)c1c(N)ncnc1N1CCC(c2nc(-c3ccc(F)c(Cl)c3)cn2CCN2CCC2)CC1 [Compound 79, 4-Amino-6-{4-[1-(2-azetidin-1-yl-ethyl)-4-(3-chloro-4-fluoro-phenyl)-1H-imidazol-2-yl]-piperidin-1-yl}-pyrimidine-5-carboxylic acid amide] | 0.9 nM | 7.5 nM
NC(=O)c1c(N)ncnc1N1CCC(c2nc(C3CCCCC3)cn2CCN2CCC2)CC1 [Compound 80, 4-Amino-6-{4-[1-(2-azetidin-1-yl-ethyl)-4-cyclohexyl-1H-imidazol-2-yl]-piperidin-1-yl}-pyrimidine-5-carboxylic acid amide] | 95 nM | 1400 nM
CCOCCc1c(N)ncnc1N1CCC(c2nc(-c3ccc(F)c(C(F)(F)F)c3)cn2CCN(C)C)CC1 [Compound 84, 6-(4-(1-(2-(Dimethylamino)ethyl)-4-(4-fluoro-3-(trifluoromethyl)phenyl)-1H-imidazol-2-yl)piperidin-1-yl)-5-(2-ethoxyethyl)pyrimidin-4-amine] | 5.2 nM | 340 nM

Further lines, results first:

IC50 (P70S6K (T412E mutant)) | IC50 (His-AKT (Full Length)) | Compound
2.1 nM | 850 nM | Cc1ncc(-c2c(N)ncnc2N2CCC(c3nc(-c4ccc(F)c(C(F)(F)F)c4)cn3C)CC2)s1 [Compound 55, 6-{4-[4-(4-Fluoro-3-trifluoromethyl-phenyl)-1-methyl-1H-imidazol-2-yl]-piperidin-1-yl}-5-(2-methyl-thiazol-5-yl)-pyrimidin-4-ylamine]
8.2 nM | 140 nM | Nc1ncnc(N2CCC(c3nc(-c4ccc(F)c(C(F)(F)F)c4)cn3CCN3CCCC3)CC2)c1-c1ccc(F)cc1 [Compound 57]
3.7 nM | 75 nM | Nc1ncnc(N2CCC(c3nc(-c4ccc(F)c(C(F)(F)F)c4)cn3CCN3CCCC3)CC2)c1-c1ccccc1F [Compound 58]
9.6 nM | 110 nM | Nc1ncnc(N2CCC(c3nc(-c4ccc(F)c(C(F)(F)F)c4)cn3CCN3CCCC3)CC2)c1-c1ccc(F)c(F)c1 [Compound 59]
5.5 nM | 12 nM | C=Cc1c(N)ncnc1N1CCC(c2nc(-c3ccc(F)c(C(F)(F)F)c3)cn2CCN2CCCCC2)CC1 [Compound 65, 6-{4-[4-(4-Fluoro-3-trifluoromethyl-phenyl)-1-(2-piperidin-1-yl-ethyl)-1H-imidazol-2-yl]-piperidin-1-yl}-5-vinyl-pyrimidin-4-ylamine]
110 nM | 410 nM | Nc1cc(N2CCC(c3nc(-c4ccc(F)c(C(F)(F)F)c4)cn3CCN3CCCCC3)CC2)ncn1 [Compound 66]
2.2 nM | 9.3 nM | CN(C)CCn1cc(-c2ccc(F)c(C(F)(F)F)c2)nc1C1CCN(c2ncnc(N)c2Br)CC1 [Compound 67, 5-Bromo-6-{4-[1-(2-dimethylamino-ethyl)-4-(4-fluoro-3-trifluoromethyl-phenyl)-1H-imidazol-2-yl]-piperidin-1-yl}-pyrimidin-4-ylamine]
7.3 nM | 230 nM | CN(C)CCn1cc(-c2ccc(F)c(C(F)(F)F)c2)nc1C1CCN(c2ncnc(N)c2-c2ccc(F)cc2)CC1 [Compound 68, 6-{4-[1-(2-Dimethylamino-ethyl)-4-(4-fluoro-3-trifluoromethyl-phenyl)-1H-imidazol-2-yl]-piperidin-1-yl}-5-(4-fluoro-phenyl)-pyrimidin-4-ylamine]
5.6 nM | 450 nM | CN(C)CCn1cc(-c2ccc(F)c(C(F)(F)F)c2)nc1C1CCN(c2ncnc(N)c2-c2cnc(N)nc2)CC1 [Compound 71, 6′-{4-[1-(2-Dimethylamino-ethyl)-4-(4-fluoro-3-trifluoromethyl-phenyl)-1H-imidazol-2-yl]-piperidin-1-yl}-[5,5′]bipyrimidinyl-2,4′-diamine]
5 nM | 15 nM | C=C(C)c1c(N)ncnc1N1CCC(c2nc(-c3ccc(F)c(C(F)(F)F)c3)cn2CCN(C)C)CC1 [Compound 72, 6-{4-[1-(2-Dimethylamino-ethyl)-4-(4-fluoro-3-trifluoromethyl-phenyl)-1H-imidazol-2-yl]-piperidin-1-yl}-5-isopropenyl-pyrimidin-4-ylamine]
2.1 nM | 479 nM | N#Cc1c(N)ncnc1N1CCC(c2nc(-c3ccc(OC(F)F)cc3)cn2CCN2CCC2)CC1 [Compound 76, 4-Amino-6-{4-[1-(2-azetidin-1-yl-ethyl)-4-(4-difluoromethoxy-phenyl)-1H-imidazol-2-yl]-piperidin-1-yl}-pyrimidine-5-carbonitrile]
2 nM | 14 nM | NC(=O)c1c(N)ncnc1N1CCC(c2nc(-c3ccc(F)c(C(F)(F)F)c3)cn2CCN2CCC2)CC1 [Compound 78, 4-Amino-6-{4-[1-(2-azetidin-1-yl-ethyl)-4-(4-fluoro-3-trifluoromethyl-phenyl)-1H-imidazol-2-yl]-piperidin-1-yl}-pyrimidine-5-carboxylic acid amide]
98 nM | 15000 nM | NC(=O)c1c(N)ncnc1N1CCC(c2nc(-c3ccc(OC(F)F)cc3)cn2CCN2CCC2)CC1 [Compound 81, 4-Amino-6-{4-[1-(2-azetidin-1-yl-ethyl)-4-(4-difluoromethoxy-phenyl)-1H-imidazol-2-yl]-piperidin-1-yl}-pyrimidine-5-carboxylic acid amide]
3.7 nM | 12 nM | CCc1c(N)ncnc1N1CCC(c2nc(-c3ccc(F)c(C(F)(F)F)c3)cn2CCN(C)C)CC1 [Compound 82, 6-(4-(1-(2-(Dimethylamino)ethyl)-4-(4-fluoro-3-(trifluoromethyl)phenyl)-1H-imidazol-2-yl)piperidin-1-yl)-5-ethylpyrimidin-4-amine]
20 nM | 190 nM | CN(C)CCn1cc(-c2ccc(F)c(C(F)(F)F)c2)nc1C1CCN(c2ncnc(N)c2CCC2CC2)CC1 [Compound 83, 5-(2-Cyclopropylethyl)-6-(4-(1-(2-(dimethylamino)ethyl)-4-(4-fluoro-3-(trifluoromethyl)phenyl)-1H-imidazol-2-yl)piperidin-1-yl)pyrimidin-4-amine]
